Here are results for one molecule from patent US7495015B2, “Indazole derivatives and methods for using the same” (Roche Palo Alto LLC, priority 2004, dated 2009).

The target of the experiment is T1, p38 MAP kinase (Homo sapiens, UniProt Q16539).
T1 construct: made in house; host or cells: E. coli (co-expressed with SEK-1 and MEKK to obtain the phosphorylated form)
The experiment is described as follows: p38 (MAP) kinase in vitro assay (transfer of γ-phosphate from γ-33P-ATP to Myelin Basic Protein). The format is biochemical. The settings on record: phosphorylated recombinant p38 MAP kinase, MBP substrate, 30° C. The procedure:
This example illustrates a p38 (MAP) kinase in vitro assay useful for evaluating the compounds of the invention.
The p38 MAP kinase inhibitory activity of compounds of this invention in vitro was determined by measuring the transfer of the γ-phosphate from γ-^33P-ATP by p-38 kinase to Myelin Basic Protein (MBP), using a minor modification of the method described in Ahn, et al., J. Biol. Chem. 266:4220-4227 (1991).
The phosphorylated form of the recombinant p38 MAP kinase was co-expressed with SEK-1 and MEKK in E. Coli (see, Khokhlatchev, et al., J Biol. Chem. 272:11057-11062 (1997)) and then purified by affinity chromatography using a Nickel column.
The phosphorylated p38 MAP kinase was diluted in kinase buffer (20 mM 3-(N-morpholino)propanesulfonic acid, pH 7.2, 25 mM β-glycerol phosphate, 5 mM ethylene glycol-bis(beta-aminoethyl ether)-N,N,N′,N′-tetraacetic acid, 1 mM sodium ortho-vanadate, 1 mM dithiothreitol, 40 mM magnesium chloride). Test compound dissolved in DMSO or only DMSO (control) was added and the samples were incubated for 10 min at 30° C. The kinase reaction was initiated by the addition of a substrate cocktail containing MBP and γ-^33P-ATP. […] The phosphorylated MBP was then separated from the residual γ-^33P-ATP using a phosphocellulose membrane (Millipore, Bedfrod, Mass.) and quantitated using a scintillation counter (Packard, Meriden, Conn.).

Molecules are shown by their SMILES.

T1 sequence (Q16539 whole entry): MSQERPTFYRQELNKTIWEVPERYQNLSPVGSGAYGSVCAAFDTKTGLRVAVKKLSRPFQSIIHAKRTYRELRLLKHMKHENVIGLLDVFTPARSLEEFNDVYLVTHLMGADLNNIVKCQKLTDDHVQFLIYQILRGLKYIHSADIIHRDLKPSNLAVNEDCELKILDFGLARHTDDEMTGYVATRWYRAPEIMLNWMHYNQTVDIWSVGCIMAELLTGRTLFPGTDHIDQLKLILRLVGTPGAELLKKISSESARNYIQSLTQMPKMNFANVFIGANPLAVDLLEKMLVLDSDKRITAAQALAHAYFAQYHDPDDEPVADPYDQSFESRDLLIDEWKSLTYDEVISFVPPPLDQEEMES

In the case of `Oc1ccc(-c2n[nH]c3cc(Oc4ccccc4F)ccc23)cc1` [Compound 35, 4-[6-(2-Fluoro-phenoxy)-1H-indazol-3-yl]-phenol], the half-inhibitory concentration (IC50) amounted to 28 nM.

By IC50 is commonly meant the concentration at which inhibition is half-maximal.
